# From patent US11572369B2, “Bicyclic pyridine compositions and methods of using the same for cancer therapy” (UNIVERSITY OF SOUTH CAROLINA, priority 2019, dated 2023)
# Experiments:
# CDK8/19 = assay: NFκB Activity Assay (NFκB luciferase reporter, parental 293 cells); format: cell-based; settings: read-out: Inhibition Potency HEK293-NFkB-Luc Assay
# DAPK2 = biological target: T1, DAPK2 (Homo sapiens, UniProt Q9UIK4); assay: KINOMEscan; format: binding; settings: 2000 nM
# T1 construct: DNA label; purchased DiscoveRx (KINOMEscan scanMAX panel)
# T1 sequence (Q9UIK4 whole entry): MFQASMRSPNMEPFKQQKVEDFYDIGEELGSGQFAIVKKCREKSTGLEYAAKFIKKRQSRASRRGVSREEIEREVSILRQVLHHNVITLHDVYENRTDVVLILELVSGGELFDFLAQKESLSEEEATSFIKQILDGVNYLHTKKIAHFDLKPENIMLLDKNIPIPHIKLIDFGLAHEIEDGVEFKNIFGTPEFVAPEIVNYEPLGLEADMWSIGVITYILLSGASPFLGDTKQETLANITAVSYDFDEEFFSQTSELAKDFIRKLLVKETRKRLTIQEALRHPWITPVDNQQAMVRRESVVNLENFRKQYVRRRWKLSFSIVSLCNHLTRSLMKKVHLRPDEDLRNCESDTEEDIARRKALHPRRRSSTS
# EPHB1 = biological target: T2, EPHB1 (Homo sapiens, UniProt P54762); assay: KINOMEscan; format: binding; settings: 2000 nM
# T2 construct: purchased DiscoveRx (KINOMEscan scanMAX panel)
# T2 sequence (P54762 18-984): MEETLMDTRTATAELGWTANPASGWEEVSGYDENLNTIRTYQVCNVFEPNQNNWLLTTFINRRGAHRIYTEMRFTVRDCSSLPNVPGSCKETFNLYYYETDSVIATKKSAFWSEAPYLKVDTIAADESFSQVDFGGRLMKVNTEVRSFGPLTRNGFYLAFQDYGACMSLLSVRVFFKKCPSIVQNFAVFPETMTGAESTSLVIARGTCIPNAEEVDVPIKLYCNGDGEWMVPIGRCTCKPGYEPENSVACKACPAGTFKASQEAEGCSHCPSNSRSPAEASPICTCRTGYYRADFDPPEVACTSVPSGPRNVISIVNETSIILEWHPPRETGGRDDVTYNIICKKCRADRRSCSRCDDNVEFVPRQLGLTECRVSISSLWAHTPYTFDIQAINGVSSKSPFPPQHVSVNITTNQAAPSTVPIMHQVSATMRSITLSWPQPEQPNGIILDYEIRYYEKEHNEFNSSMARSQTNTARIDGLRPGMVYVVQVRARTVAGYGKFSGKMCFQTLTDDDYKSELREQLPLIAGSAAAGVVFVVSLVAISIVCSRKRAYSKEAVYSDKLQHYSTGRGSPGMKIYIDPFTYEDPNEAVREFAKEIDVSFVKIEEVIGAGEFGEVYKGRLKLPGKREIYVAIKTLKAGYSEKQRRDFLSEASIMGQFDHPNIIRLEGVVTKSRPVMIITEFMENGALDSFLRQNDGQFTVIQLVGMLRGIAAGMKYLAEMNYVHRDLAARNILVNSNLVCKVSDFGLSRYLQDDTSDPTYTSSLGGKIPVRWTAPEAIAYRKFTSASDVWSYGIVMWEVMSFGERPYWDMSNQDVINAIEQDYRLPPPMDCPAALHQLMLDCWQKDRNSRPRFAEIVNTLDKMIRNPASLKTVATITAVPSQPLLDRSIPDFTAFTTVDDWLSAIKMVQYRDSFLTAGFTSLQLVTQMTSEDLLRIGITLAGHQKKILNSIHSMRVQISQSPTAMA
# FRK = biological target: T3, FRK (Homo sapiens, UniProt P42685); assay: KINOMEscan; format: binding; settings: 2000 nM
# T3 construct: purchased KINOMEscan (DiscoveRx)
# T3 sequence (P42685 whole entry): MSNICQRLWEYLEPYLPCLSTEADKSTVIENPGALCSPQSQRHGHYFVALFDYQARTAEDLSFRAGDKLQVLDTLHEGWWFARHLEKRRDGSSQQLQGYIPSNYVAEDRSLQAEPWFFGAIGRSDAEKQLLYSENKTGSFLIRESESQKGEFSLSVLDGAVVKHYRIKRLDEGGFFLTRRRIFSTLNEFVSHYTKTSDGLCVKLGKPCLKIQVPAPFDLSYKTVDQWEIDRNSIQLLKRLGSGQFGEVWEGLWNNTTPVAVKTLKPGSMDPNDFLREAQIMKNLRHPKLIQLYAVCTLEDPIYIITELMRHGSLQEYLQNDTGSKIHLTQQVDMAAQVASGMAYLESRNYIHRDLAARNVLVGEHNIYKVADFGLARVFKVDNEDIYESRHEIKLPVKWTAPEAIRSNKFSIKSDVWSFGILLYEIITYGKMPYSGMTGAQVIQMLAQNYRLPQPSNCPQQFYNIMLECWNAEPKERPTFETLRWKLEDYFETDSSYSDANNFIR
# ICK = biological target: T4, ICK (Homo sapiens, UniProt Q9UPZ9); assay: KINOMEscan; format: binding; settings: 2000 nM
# T4 construct: DNA label (qPCR read-out); purchased KINOMEscan (DiscoveRx) ScanMAX panel
# T4 sequence (Q9UPZ9 whole entry): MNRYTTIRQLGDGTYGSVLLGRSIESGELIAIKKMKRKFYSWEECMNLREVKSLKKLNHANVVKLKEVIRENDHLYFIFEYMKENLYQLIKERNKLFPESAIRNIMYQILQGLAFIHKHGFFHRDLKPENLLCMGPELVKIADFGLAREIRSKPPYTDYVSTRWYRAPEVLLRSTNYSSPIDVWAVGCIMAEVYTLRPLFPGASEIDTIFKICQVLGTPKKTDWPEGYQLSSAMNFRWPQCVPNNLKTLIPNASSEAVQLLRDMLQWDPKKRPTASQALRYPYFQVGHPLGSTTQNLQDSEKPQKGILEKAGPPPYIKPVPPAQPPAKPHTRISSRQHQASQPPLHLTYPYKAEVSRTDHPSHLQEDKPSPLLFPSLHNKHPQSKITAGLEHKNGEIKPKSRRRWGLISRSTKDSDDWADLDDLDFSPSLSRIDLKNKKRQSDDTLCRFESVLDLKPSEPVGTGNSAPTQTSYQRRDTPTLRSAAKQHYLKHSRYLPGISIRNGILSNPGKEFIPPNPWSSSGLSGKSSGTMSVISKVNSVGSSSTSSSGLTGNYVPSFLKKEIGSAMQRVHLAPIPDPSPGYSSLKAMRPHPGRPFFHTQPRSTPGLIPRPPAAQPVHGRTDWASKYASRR
# [1] = biological target: T5, JAK1(JH2domain-pseudokinase) (Homo sapiens, UniProt P23458); assay: KINOMEscan; format: binding; settings: 2000 nM
# T5 construct: JAK1(JH2domain-pseudokinase); DNA label (for qPCR read-out); purchased DiscoveRx (KINOMEscan scanMAX panel)
# T5 sequence (P23458 583-855 limits assumed): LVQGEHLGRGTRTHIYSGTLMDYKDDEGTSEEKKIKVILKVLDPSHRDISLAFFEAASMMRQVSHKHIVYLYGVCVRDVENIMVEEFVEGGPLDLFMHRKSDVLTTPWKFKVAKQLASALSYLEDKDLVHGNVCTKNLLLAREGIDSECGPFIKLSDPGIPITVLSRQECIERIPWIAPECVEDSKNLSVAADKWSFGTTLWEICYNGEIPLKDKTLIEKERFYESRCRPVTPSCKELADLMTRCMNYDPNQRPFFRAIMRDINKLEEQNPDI
# MEK4 = biological target: T6, MEK4 (Homo sapiens, UniProt P45985); assay: KINOMEscan; format: binding; settings: 2000 nM
# T6 construct: purchased DiscoveRx (KINOMEscan scanMAX panel, service)
# T6 sequence (P45985 whole entry): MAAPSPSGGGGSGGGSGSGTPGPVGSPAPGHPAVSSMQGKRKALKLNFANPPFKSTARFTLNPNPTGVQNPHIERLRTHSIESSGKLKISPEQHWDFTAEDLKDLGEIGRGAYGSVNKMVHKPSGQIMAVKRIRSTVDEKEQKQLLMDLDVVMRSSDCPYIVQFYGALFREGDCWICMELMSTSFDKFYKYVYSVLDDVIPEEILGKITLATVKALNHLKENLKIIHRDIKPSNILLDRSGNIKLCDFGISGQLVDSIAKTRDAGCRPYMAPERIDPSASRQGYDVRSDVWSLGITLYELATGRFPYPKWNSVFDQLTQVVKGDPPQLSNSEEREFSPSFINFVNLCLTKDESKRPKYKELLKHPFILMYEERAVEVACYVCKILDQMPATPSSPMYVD
# [2] = Oral PK in female CD-1 mice, solution formulation; settings: oral gavage in solution, 30 mg/kg (15u series) or 16/18 mg/kg (15w series)
# CDK19 = biological target: T7, CDK19 (Homo sapiens, UniProt Q9BWU1); assay: Kd Elect binding assay (DiscoverX); settings: duplicates
# T7 construct: DNA label (qPCR read-out); purchased DiscoverX (assay service)
# T7 sequence (Q9BWU1 whole entry): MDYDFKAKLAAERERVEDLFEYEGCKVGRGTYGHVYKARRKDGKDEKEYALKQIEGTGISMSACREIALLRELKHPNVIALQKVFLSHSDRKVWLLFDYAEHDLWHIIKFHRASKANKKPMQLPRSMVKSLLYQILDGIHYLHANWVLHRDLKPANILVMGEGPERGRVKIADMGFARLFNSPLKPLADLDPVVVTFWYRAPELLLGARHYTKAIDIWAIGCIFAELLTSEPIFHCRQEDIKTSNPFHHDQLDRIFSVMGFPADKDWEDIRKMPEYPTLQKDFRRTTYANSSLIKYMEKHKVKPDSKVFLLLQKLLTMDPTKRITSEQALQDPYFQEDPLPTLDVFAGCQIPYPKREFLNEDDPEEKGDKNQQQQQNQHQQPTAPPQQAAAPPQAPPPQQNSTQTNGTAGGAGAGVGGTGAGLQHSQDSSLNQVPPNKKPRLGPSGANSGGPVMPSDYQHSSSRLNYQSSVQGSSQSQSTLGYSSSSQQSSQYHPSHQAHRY
# Excerpt: (§1) Nat. Biotechnol. 23, 329-336 (2005).
# CDK8 = biological target: T8, CDK8 (Homo sapiens, UniProt P49336); assay: Kd Elect binding assay (DiscoverX); settings: duplicates
# T8 construct: DNA label (qPCR read-out); purchased DiscoverX (assay service)
# T8 sequence (P49336 whole entry): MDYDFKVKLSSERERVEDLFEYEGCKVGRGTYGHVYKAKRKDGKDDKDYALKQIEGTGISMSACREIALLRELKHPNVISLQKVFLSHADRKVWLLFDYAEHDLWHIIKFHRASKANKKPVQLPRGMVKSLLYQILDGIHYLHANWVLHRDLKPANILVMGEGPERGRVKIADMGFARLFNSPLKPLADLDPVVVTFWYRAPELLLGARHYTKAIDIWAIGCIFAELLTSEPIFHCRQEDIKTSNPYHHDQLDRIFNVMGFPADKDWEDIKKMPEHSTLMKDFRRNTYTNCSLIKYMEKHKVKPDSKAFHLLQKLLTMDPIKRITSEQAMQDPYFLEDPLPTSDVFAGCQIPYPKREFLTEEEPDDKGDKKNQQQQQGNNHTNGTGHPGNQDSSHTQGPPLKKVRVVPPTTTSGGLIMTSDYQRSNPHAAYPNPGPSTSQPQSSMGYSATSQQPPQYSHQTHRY
# Excerpt: as §1
# CSNK1A1 = biological target: T9, CSNK1A1 (Homo sapiens, UniProt P48729); assay: Kd Elect binding assay (DiscoverX); settings: duplicates
# T9 construct: DNA label (qPCR read-out); purchased DiscoverX (assay service)
# T9 sequence (P48729 whole entry): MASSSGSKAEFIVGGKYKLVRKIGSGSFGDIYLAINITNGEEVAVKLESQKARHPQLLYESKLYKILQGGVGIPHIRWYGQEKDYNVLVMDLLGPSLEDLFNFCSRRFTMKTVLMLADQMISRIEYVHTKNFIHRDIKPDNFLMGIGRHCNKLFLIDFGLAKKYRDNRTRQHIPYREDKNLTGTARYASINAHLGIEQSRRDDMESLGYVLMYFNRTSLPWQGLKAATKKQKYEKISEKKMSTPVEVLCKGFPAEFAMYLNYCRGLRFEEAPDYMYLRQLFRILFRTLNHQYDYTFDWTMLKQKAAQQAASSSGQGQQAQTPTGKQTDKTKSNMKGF
# Excerpt: as §1
# GSK3A = biological target: T10, GSK3A (Homo sapiens, UniProt P49840); assay: Kd Elect binding assay (DiscoverX); settings: duplicates
# T10 construct: DNA label (qPCR read-out); purchased DiscoverX (assay service)
# T10 sequence (P49840 whole entry): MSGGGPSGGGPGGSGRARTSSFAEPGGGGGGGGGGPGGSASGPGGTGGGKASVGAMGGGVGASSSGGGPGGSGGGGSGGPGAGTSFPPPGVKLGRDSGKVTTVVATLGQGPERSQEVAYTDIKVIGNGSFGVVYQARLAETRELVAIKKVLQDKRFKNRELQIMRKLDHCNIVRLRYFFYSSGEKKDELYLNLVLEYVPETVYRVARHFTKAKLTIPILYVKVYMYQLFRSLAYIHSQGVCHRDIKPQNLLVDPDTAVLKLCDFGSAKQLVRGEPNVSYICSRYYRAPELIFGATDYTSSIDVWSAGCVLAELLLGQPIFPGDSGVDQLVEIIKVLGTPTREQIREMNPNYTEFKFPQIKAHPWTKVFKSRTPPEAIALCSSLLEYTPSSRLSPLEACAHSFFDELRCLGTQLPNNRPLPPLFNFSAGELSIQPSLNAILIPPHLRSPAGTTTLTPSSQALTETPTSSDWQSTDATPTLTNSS
# Excerpt: as §1
# RIOK2 = biological target: T11, RIOK2 (Homo sapiens, UniProt Q9BVS4); assay: Kd Elect binding assay (DiscoverX); settings: duplicates
# T11 construct: DNA label (qPCR read-out); purchased DiscoverX (assay service)
# Excerpt: as §1
# [3] = test system: CRPC cell line 22rv1 xenograft; assay: 22rv1 CRPC xenograft in castrated male nude mice; format: in vivo, mouse; settings: 50 mg/kg orally daily
# Method: In another in vivo study, CRPC cell line 22rv1 was grown as a xenograft in castrated male nude mice.
# [4] = test system: 4T1 murine triple-negative breast cancer; assay: 4T1 TNBC lung metastasis survival after primary tumor removal; format: in vivo, mouse; settings: 25 mg/kg oral b.i.d. after removal of primary tumor
# MYC-CAP-CR cells = assay: Short-term cell proliferation assay, MYC-CAP-CR; format: cell-based, murine; settings: androgen-containing media
# [5] = test system: luciferase-expressing MV4-11 cells; assay: MV4-11 leukemia in NSG mice, bioluminescence imaging; format: in vivo, mouse; settings: for inhibition of leukemia growth (BLI): 23 days, NSG mice
# Method: Assay protocol. For in vivo studies, 7-week-old female NSG mice (Jackson Laboratories) were injected with 2×10^6 luciferase-expressing MV4-11 cells in the tail vein. Following engraftment, BLI was performed on the inoculated mice 5 days after cell inoculation. After BLI, the mice were sorted into two matching cohorts of 10 mice and one cohort of 5 mice. BLI detection was done with IVIS Lumina II Series Hardware for In-Vivo Imaging with optional XFOV lens and Living Image software. The IVIS setting for sorting mice into cohorts was set for high sensitivity: Bin 8, F1.2, 180 sec. Subsequent exposures (week 1-5) were set for increased resolution: Bin 4, F1.2, 120 sec.
# Treatment was initiated on day 6 following cell-inoculation and continued for 23 days. Ten mice received Vehicle only (5% carboxylmethyl cellulose) by gavage (200 μl). […] This diet matches the diet used for normal mouse feeding, with the exception of added dye and 15u. The control MV4-11 xenografted mice (Vehicle) developed a vigorous tumor population as detected by BLI (FIG. 10B-10C). […] Survival of the mice post treatment was monitored.
# MDA-MB-468 xenografts = MDA-MB-468 xenografts in NSG mice; format: in vivo, mouse; settings: 66 days
# Method: To evaluate the effect of CDK8/19 inhibition on in vivo growth of MDA-MB-468 xenografts, 1 million cells with 40% Matrigel ([…] total volume) were injected s.c. into the right flanks of immunodeficient NSG female mice (9 weeks old). 11 days after inoculation, mice were randomized by tumor size into two groups (n=9), with the average tumor volume 115 mm^3 in each group.
# [6] = MTD study, oral gavage b.i.d. 14 days, CD-1 mice; format: in vivo, mouse; settings: for detrimental effects: 14 days
# Method: The highest dose (120 mg/kg b.i.d.) caused about 10% body weight loss in female mice after 7-10 days of treatment but no further deterioration was observed through the rest of the treatment period (FIG. 12A).
# [7] = Long-term MTD study, medicated diet, CD-1 mice; format: in vivo, mouse; settings: female CD-1 mice, 1000 ppm medicated diet, first week
# Method: In another long-term MTD in vivo assay, groups of male and female CD-1 mice were fed regular diet (control) or 15u-medicated diet (500 ppm or 1000 ppm) for 4 or 5 weeks (FIG. 12B). The daily doses of 500 ppm and 1000 ppm groups were estimated to be about 50-100 mg/kg and 100-200 mg/kg, respectively, based on daily diet consumption.
# MV4-11 cells = assay: MV4-11-Luc proliferation assay; settings: Homo sapiens, MV4-11, read-out: Inhibition Potency MV4-11-Luc Assay
# [8] = Mouse oral PK of 15u/15w mixture at 30 mg/kg; settings: female CD1 mice, oral 30 mg/kg of each compound, latest timepoint 8 hrs
# [9] = test system: NFκB activation in CDK8/19-deficient cells; assay: NFκB reporter assay in CDK8/19 double-knockout 293 reporter cells; settings: CDK8/19 double-knockout reporter cells
# [10] = medicated diet 250 ppm plus daily gavage 5 then 8 mg/kg
structure (smiles),measurement,setting,value
"[2H]C([2H])([2H])N(C(=O)c1ccc(N2CCCN(c3ccnc4sc(C(N)=O)c(N)c34)CC2)cc1)C([2H])([2H])[2H] [15u_D6, 3-amino-4-(4-(4-(bis(methyl-d3)carbamoyl)phenyl)-1,4-diazepan-1-yl)thieno[2,3-b]pyridine-2-carboxamide]",IC50,CDK8/19,7.7 nM
same,% Ctrl,DAPK2,85 % Ctrl
same,% Ctrl,EPHB1,88 % Ctrl
same,% Ctrl,FRK,97 % Ctrl
same,% Ctrl,ICK,66 % Ctrl
same,% Ctrl,[1],89 % Ctrl
same,% Ctrl,MEK4,74 % Ctrl
same,PK (AUC 0-8 h) versus undeuterated parent,[2],slightly improved the PK
"CN(C)C(=O)c1ccc(N2CCCN(c3ccnc4sc(C(N)=O)c(N)c34)CC2)cc1 [15u, 3-amino-4-(4-(4-(dimethylcarbamoyl)phenyl)-1,4-diazepan-1-yl)thieno[2,3-b]pyridine-2-carboxamide]",Kd,CDK19,65 nM
same,Kd,CDK8,78 nM
same,Kd,CSNK1A1,230 nM
same,Kd,GSK3A,5600 nM
same,Kd,RIOK2,240 nM
same,adverse effects and body weight,[3],no apparent adverse effects and no diminution of mouse body weight
same,xenograft tumor growth,[3],strongly suppressed the tumor growth
same,mouse survival of the metastatic disease,[4],significantly increased mouse survival
same,MYC-CAP-CR cell growth,MYC-CAP-CR cells,little effect
same,inhibition of leukemia growth (BLI),[5]; 30 mg/kg twice daily by gavage,94%
same,inhibition of leukemia growth (BLI),[5]; medicated chow containing 15u at 1 g/kg,99.7%
same,survival post treatment,"[5]; oral gavage, FIG. 10D",superior survival rates
same,mouse body weights,MDA-MB-468 xenografts; long-term treatment,no detrimental effects
same,final tumor weights,MDA-MB-468 xenografts; [10],significantly lower
same,tumor volume,MDA-MB-468 xenografts; [10],significant reduction in tumor volume
same,body weight loss,"[6]; female CD-1 mice, 120 mg/kg b.i.d., after 7-10 days of treatment",about 10%
same,detrimental effects,"[6]; female CD-1 mice, doses up to 60 mg/kg b.i.d.",No detrimental effects
same,detrimental effects,"[6]; male CD-1 mice, 60 and 120 mg/kg b.i.d.",No detrimental effects
same,weight loss,[7],5-10%
same,% Ctrl,DAPK2,75 % Ctrl
same,% Ctrl,EPHB1,88 % Ctrl
same,% Ctrl,FRK,100 % Ctrl
same,% Ctrl,ICK,84 % Ctrl
same,% Ctrl,[1],89 % Ctrl
same,% Ctrl,MEK4,69 % Ctrl
same,IC50,MV4-11 cells,30 nM
same,average serum concentration at 8 hrs as % of Cmax,[8],64.4%
same,effect on NFκB activation in CDK8/19-deficient cells,[9],no effect
